Data reported in US9249208B2, “Citrulline peptides derived from fibrin and recognized by rheumatoid arthritis specific autoantibodies, and the use thereof” (Biomerieux, priority 2004, dated 2016).
Where no end group is shown, it is not given here. [ ]: non-standard residue; d: D form. Cit = NC(=O)NCCC[C@H](N)C(=O)O

Experiments:
[1] = system: anti-citrullinated protein autoantibodies (ACPAs); experiment: ELISA of citrullinated/native fibrin peptide pairs with serum mixtures A and B and control mixture (delta OD); assay type: binding, human; settings: mean of two determinations
Experimental: Each pair of peptides (citrullinated and noncitrullinated) was assayed by ELISA with a mixture, in equal parts, of 10 sera having no ACPAs (control mixture) and with the 2 mixtures A and B described in Example 1.
Each pair of peptides (native and citrullinated form) was tested on the same plate and a pair of control peptides—citrullinated “filaggrin” peptide cfc6 and its corresponding native peptide cf0 (Schellekens G A, 1998, mentioned above)—was included in each experiment, which made it possible to calculate an inter-assay coefficient of variation and to perform corrections.
All the incubations were carried out for 1 h at 4° C. and were followed by washing in PBS-0.1% Tween. The peroxidase activity was visualized with a solution of ortho-phenylenediamine (2 mg/ml—Sigma) in hydrogen peroxide (0.03%—Sigma). The reaction was stopped after 5 minutes by adding 4M sulfuric acid, and the optical density (OD) at 492 nm was measured by virtue of an automatic spectrophotometer (Multiskan, Thermo Labsystems).
The specific reactivity of the mixtures of sera with regard to the citrullinated peptides corresponded to the difference between the OD obtained with the citrullinated peptide and that obtained with the corresponding native peptide (delta OD). The results correspond to the mean of two determinations. Any citrullinated peptide making it possible to obtain a delta OD of greater than 0.250 for at least one of the two mixtures A and B after coating in at least one of the three buffers, was considered to be reactive.

[2] = system: anti-citrullinated protein autoantibodies (ACPAs); experiment: ELISA of reactive citrullinated fibrin peptides with the 20 individual sera of mixtures A and B; assay type: binding, human; settings: for Number of positive sera: sera with delta OD not <0.25 out of sera tested (20, or 10 of mixture A only); for delta OD: best coating buffer per peptide
Experimental: The 14 peptides carrying the most reactive epitopes (delta OD≧0.5 for one or other of the mixtures of serum (A and B) with at least one of the three coating buffers) were tested independently with the 20 sera constituting the mixtures A and B, in order to evaluate the reactivity profile of each of these peptides. The tests were carried out by ELISA under the same conditions as in Example 2 above, with the exception that, for each pair of peptides, the coating buffer selected was that that had made it possible to obtain the strongest reactivity with respect to this peptide during the screening (the buffer for which the sum of the delta ODs obtained respectively for the serum mixtures A and B was at a maximum). […] Thus, for each serum, the dilution that made it possible to obtain an OD of 1 by ELISA on deiminated fibrinogen was selected (Nogueira L, 2002, mentioned above). The dilutions ranged from 1/20 to 1/2700.

[3] = Mixture A of sera 1/50, coating buffer PBS pH 7.4
[4] = Mixture A of sera 1/50, coating buffer acetate pH 5.0
[5] = Mixture A of sera 1/50, coating buffer carbonate pH 9.0
[6] = Mixture B of sera 1/50, coating buffer PBS pH 7.4
[7] = Mixture B of sera 1/50, coating buffer acetate pH 5.0
[8] = Mixture B of sera 1/50, coating buffer carbonate pH 9.0

Substance	delta OD (citrullinated minus native peptide, 492 nm) [1, 3]	delta OD (citrullinated minus native peptide, 492 nm) [1, 4]	delta OD (citrullinated minus native peptide, 492 nm) [1, 5]	delta OD (citrullinated minus native peptide, 492 nm) [1, 6]	delta OD (citrullinated minus native peptide, 492 nm) [1, 7]	delta OD (citrullinated minus native peptide, 492 nm) [1, 8]	Number of positive sera [2]	delta OD ([2]; serum 97.0311, dilution 1/200)	delta OD ([2]; serum 97.0796, dilution 1/500)	delta OD ([2]; serum 97.0907, dilution 1/300)	delta OD ([2]; serum 97.1474, dilution 1/20)	delta OD ([2]; serum 97.0459, dilution 1/60)	other results
α396-410Cit404: citrullinated synthetic peptide, fibrin α-chain residues 396-410 (DSPGSGNA[Cit]PNNPDW)	0.02	0.04	0.43	0.17	0.15	0.20							
α621-635Cit621,627,630: citrullinated synthetic peptide, fibrin α-chain residues 621-635; fits SEQ ID NO: 12 X1GHAKSX2PVX3GIHTS ([Cit]GHAKS[Cit]PV[Cit]GIHTS)	1.57	0.25	1.17	1.51	0.18	1.20	10/20	0.37	0.69	1.04	0.59		delta OD ([2]; serum 97.0169, dilution 1/400): 0.80; delta OD ([2]; serum 97.0244, dilution 1/2700): 0.50; delta OD ([2]; serum 97.0388, dilution 1/50): 2.71; delta OD ([2]; serum 97.0468, dilution 1/700): 0.81; delta OD ([2]; serum 97.1210, dilution 1/300): 0.37; delta OD ([2]; serum 97.1548, dilution 1/60): 3.29
α183-197Cit186,190: citrullinated synthetic peptide, fibrin α-chain residues 183-197 (second series) (SCS[Cit]ALA[Cit]EVDLKDY)	1.68	0.41	1.36	0.15	0.01	0.07	3/10	0.87				3.21	delta OD ([2]; serum 97.0506, dilution 1/75): 0.85
β210-224Cit224: citrullinated synthetic peptide, fibrin β-chain residues 210-224 (QKLESDVSAQMEYC[Cit])	0.29	0.25	1.14	0.60	0.00	1.56	6/20	0.46	0.67	0.33			delta OD ([2]; serum 97.0323, dilution 1/120): 0.36; delta OD ([2]; serum 97.1210, dilution 1/300): 0.72; delta OD ([2]; serum 97.1795, dilution 1/50): 0.49
β281-295Cit285,294: citrullinated synthetic peptide, fibrin β-chain residues 281-295 (second series) (VIQN[Cit]QDGSVDFG[Cit]K)	0.60	0.12	0.61	0.75	0.11	0.71	6/20				0.36	2.22	delta OD ([2]; serum 97.0323, dilution 1/120): 1.16; delta OD ([2]; serum 97.0506, dilution 1/75): 1.80; delta OD ([2]; serum 97.0524, dilution 1/200): 0.25; delta OD ([2]; serum 97.0794, dilution 1/50): 0.26
α171-185Cit178,181: citrullinated synthetic peptide, fibrin α-chain residues 171-185; fits SEQ ID NO: 4 VDIDIKIX1SCX2GSCS (VDIDIKI[Cit]SC[Cit]GSCS; cysteine pairing not given here)	0.29	0.15	0.75	0.21	0.08	0.47	9/20	1.95		0.44	1.08	0.29	delta OD ([2]; serum 97.0468, dilution 1/700): 0.42; delta OD ([2]; serum 97.0524, dilution 1/200): 0.59; delta OD ([2]; serum 97.0794, dilution 1/50): 2.09; delta OD ([2]; serum 97.1548, dilution 1/60): 0.71; delta OD ([2]; serum 97.1795, dilution 1/50): 0.57
β433-447Cit436,445: citrullinated synthetic peptide, fibrin β-chain residues 433-447 (second series) (WYN[Cit]CHAANPNG[Cit]YY)	0.58	0.41	0.67	0.00	0.00	0.03	2/10		0.71				delta OD ([2]; serum 97.0388, dilution 1/50): 1.14
β420-434Cit421: citrullinated synthetic peptide, fibrin β-chain residues 420-434 (P[Cit]KQCSKEDGGGWWY)	0.48	0.36	0.44	0.00	0.00	0.00							
α246-260Cit258: citrullinated synthetic peptide, fibrin α-chain residues 246-260 (PEWKALTDMPQM[Cit]ME)	0.00	0.04	0.00	0.25	0.27	0.33							
α366-380Cit367: citrullinated synthetic peptide, fibrin α-chain residues 366-380 (E[Cit]GSAGHWTSESSVS)	0.37	0.28	0.26	0.04	0.00	0.08							
